# Test results taken from ChEMBL document CHEMBL1201862, “PubChem BioAssay data set” (2004).
#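 How tested: cells in 96-well plates exposed to compound for 48 hours at five concentrations. GI50 = concentration required for 50% inhibition of growth.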 Active and inactive are the calls of the source. No stated cut-off is given here; in the data, active = GI50 up to about 1.1 µM and inactive = higher.
# Assays:
# Assay in all cases: NCI anticancer screen, dose series, 48 h
# KM12 = test system: KM12
# OVCAR-4 = test system: OVCAR-4
# MOLT-4 = test system: MOLT-4
# SK-MEL-5 = test system: SK-MEL-5
# K562 = test system: K562
# M14 = test system: M14
# RXF 393 = test system: RXF 393
# HOP-92 = test system: HOP-92
# ACHN = test system: ACHN
# NCI/ADR-RES = test system: NCI/ADR-RES
# LOX IMVI = test system: LOX IMVI
# OVCAR-8 = test system: OVCAR-8
# SF-539 = test system: SF-539
# SNB-19 = test system: SNB-19
# SK-OV-3 = test system: SK-OV-3
# HT-29 = test system: HT-29
# HOP-62 = test system: HOP-62
# SN12C = test system: SN12C
# CAKI-1 = test system: CAKI-1
# A549 = test system: A549
# OVCAR-5 = test system: OVCAR-5
# SF-295 = test system: SF-295
# U-251 = test system: U-251
# 786-0 = test system: 786-0
# NCI-H23 = test system: NCI-H23
# NCI-H226 = test system: NCI-H226
# A498 = test system: A498
# NCI-H522 = test system: NCI-H522
# RPMI-8226 = test system: RPMI-8226
# HL-60 = test system: HL-60
# T47D = test system: T47D
# CCRF-CEM = test system: CCRF-CEM
# SF-268 = test system: SF-268
# SK-MEL-2 = test system: SK-MEL-2
# SK-MEL-28 = test system: SK-MEL-28
# UACC-62 = test system: UACC-62
# UO-31 = test system: UO-31
# NCI-H460 = test system: NCI-H460
# OVCAR-3 = test system: OVCAR-3
# Hs-578T = test system: Hs-578T
# TK-10 = test system: TK-10
# MDA-MB-435 = test system: MDA-MB-435
# SR = test system: SR
# MDA-N = test system: MDA-N
# MCF7 = test system: MCF7
# IGROV-1 = test system: IGROV-1
# Malme-3M = test system: Malme-3M
# HCT-116 = test system: HCT-116
# PC-3 = test system: PC-3
# COLO 205 = test system: COLO 205
# EKVX = test system: EKVX
# UACC-257 = test system: UACC-257
# SW-620 = test system: SW-620
# SNB-75 = test system: SNB-75
# DU-145 = test system: DU-145
# HCT-15 = test system: HCT-15
# MDA-MB-231 = test system: MDA-MB-231
# BT-549 = test system: BT-549
# HCC 2998 = test system: HCC 2998
structure (smiles),measurement,setting,value
O=C(O)c1ccccc1-c1ccccc1C(=O)c1ccccc1,GI50,KM12,> 100 µM (inactive)
same,GI50,OVCAR-4,> 100 µM (inactive)
same,GI50,MOLT-4,> 100 µM (inactive)
same,GI50,SK-MEL-5,> 100 µM (inactive)
same,GI50,K562,> 100 µM (inactive)
same,GI50,M14,> 100 µM (inactive)
same,GI50,RXF 393,> 100 µM (inactive)
same,GI50,HOP-92,51.6 µM (inactive)
same,GI50,ACHN,> 100 µM (inactive)
same,GI50,NCI/ADR-RES,> 100 µM (inactive)
same,GI50,LOX IMVI,> 100 µM (inactive)
same,GI50,OVCAR-8,> 100 µM (inactive)
same,GI50,SF-539,> 100 µM (inactive)
same,GI50,SNB-19,> 100 µM (inactive)
same,GI50,SK-OV-3,> 100 µM (inactive)
same,GI50,HT-29,> 100 µM (inactive)
same,GI50,HOP-62,> 100 µM (inactive)
same,GI50,SN12C,> 100 µM (inactive)
same,GI50,CAKI-1,> 100 µM (inactive)
same,GI50,A549,> 100 µM (inactive)
same,GI50,OVCAR-5,> 100 µM (inactive)
same,GI50,SF-295,> 100 µM (inactive)
same,GI50,U-251,> 100 µM (inactive)
same,GI50,786-0,> 100 µM (inactive)
same,GI50,NCI-H23,> 100 µM (inactive)
same,GI50,NCI-H226,> 100 µM (inactive)
same,GI50,A498,> 100 µM (inactive)
same,GI50,NCI-H522,> 100 µM (inactive)
same,GI50,RPMI-8226,> 100 µM (inactive)
same,GI50,HL-60,> 100 µM (inactive)
same,GI50,T47D,> 100 µM (inactive)
same,GI50,CCRF-CEM,> 100 µM (inactive)
same,GI50,SF-268,> 100 µM (inactive)
same,GI50,SK-MEL-2,> 100 µM (inactive)
same,GI50,SK-MEL-28,> 100 µM (inactive)
same,GI50,UACC-62,> 100 µM (inactive)
same,GI50,UO-31,> 100 µM (inactive)
same,GI50,NCI-H460,> 100 µM (inactive)
same,GI50,OVCAR-3,> 100 µM (inactive)
same,GI50,Hs-578T,> 100 µM (inactive)
same,GI50,TK-10,> 100 µM (inactive)
same,GI50,MDA-MB-435,> 100 µM (inactive)
same,GI50,SR,> 100 µM (inactive)
same,GI50,MDA-N,> 100 µM (inactive)
same,GI50,MCF7,> 100 µM (inactive)
same,GI50,IGROV-1,> 100 µM (inactive)
same,GI50,Malme-3M,> 100 µM (inactive)
same,GI50,HCT-116,> 100 µM (inactive)
same,GI50,PC-3,> 100 µM (inactive)
same,GI50,COLO 205,> 100 µM (inactive)
same,GI50,EKVX,> 100 µM (inactive)
same,GI50,UACC-257,> 100 µM (inactive)
same,GI50,SW-620,> 100 µM (inactive)
same,GI50,SNB-75,> 100 µM (inactive)
same,GI50,DU-145,> 100 µM (inactive)
same,GI50,HCT-15,> 100 µM
same,GI50,MDA-MB-231,> 100 µM (inactive)
same,GI50,BT-549,> 100 µM (inactive)
CC(C)=NC(C(=O)O)C(C)(C)S (stereo unspecified),GI50,KM12,> 100 µM (inactive)
same,GI50,OVCAR-4,> 100 µM (inactive)
same,GI50,MOLT-4,> 100 µM (inactive)
same,GI50,K562,> 100 µM (inactive)
same,GI50,M14,> 100 µM (inactive)
same,GI50,RXF 393,> 100 µM (inactive)
same,GI50,HOP-92,> 100 µM (inactive)
same,GI50,ACHN,> 100 µM (inactive)
same,GI50,NCI/ADR-RES,> 100 µM (inactive)
same,GI50,LOX IMVI,> 100 µM (inactive)
same,GI50,OVCAR-8,> 100 µM (inactive)
same,GI50,SF-539,> 100 µM (inactive)
same,GI50,SNB-19,> 100 µM (inactive)
same,GI50,SK-OV-3,> 100 µM (inactive)
same,GI50,HT-29,> 100 µM (inactive)
same,GI50,HOP-62,> 100 µM (inactive)
same,GI50,SN12C,> 100 µM (inactive)
same,GI50,CAKI-1,> 100 µM (inactive)
same,GI50,A549,> 100 µM (inactive)
same,GI50,OVCAR-5,> 100 µM (inactive)
same,GI50,SF-295,> 100 µM (inactive)
same,GI50,U-251,> 100 µM (inactive)
same,GI50,786-0,> 100 µM (inactive)
same,GI50,NCI-H23,> 100 µM (inactive)
same,GI50,NCI-H226,> 100 µM (inactive)
same,GI50,A498,> 100 µM (inactive)
same,GI50,NCI-H522,> 100 µM (inactive)
same,GI50,RPMI-8226,> 100 µM (inactive)
same,GI50,HL-60,> 100 µM (inactive)
same,GI50,T47D,> 100 µM (inactive)
same,GI50,CCRF-CEM,> 100 µM (inactive)
same,GI50,SF-268,> 100 µM (inactive)
same,GI50,SK-MEL-2,> 100 µM (inactive)
same,GI50,SK-MEL-28,> 100 µM (inactive)
same,GI50,UACC-62,> 100 µM (inactive)
same,GI50,UO-31,> 100 µM (inactive)
same,GI50,NCI-H460,> 100 µM (inactive)
same,GI50,OVCAR-3,> 100 µM (inactive)
same,GI50,Hs-578T,> 100 µM (inactive)
same,GI50,TK-10,> 100 µM (inactive)
same,GI50,MDA-MB-435,> 100 µM (inactive)
same,GI50,SR,> 100 µM (inactive)
same,GI50,MDA-N,> 100 µM (inactive)
same,GI50,MCF7,> 100 µM (inactive)
same,GI50,IGROV-1,> 100 µM (inactive)
same,GI50,Malme-3M,> 100 µM (inactive)
same,GI50,HCT-116,> 100 µM (inactive)
same,GI50,PC-3,> 100 µM (inactive)
same,GI50,COLO 205,> 100 µM (inactive)
same,GI50,EKVX,> 100 µM (inactive)
same,GI50,UACC-257,> 100 µM (inactive)
same,GI50,SW-620,> 100 µM (inactive)
same,GI50,SNB-75,> 100 µM (inactive)
same,GI50,DU-145,> 100 µM (inactive)
same,GI50,HCT-15,> 100 µM
same,GI50,MDA-MB-231,> 100 µM (inactive)
same,GI50,BT-549,> 100 µM (inactive)
Cc1ccc(OCCn2cc(Nc3ccccc3)c(=O)[nH]c2=O)cc1,GI50,KM12,> 100 µM (inactive)
same,GI50,OVCAR-4,> 100 µM (inactive)
same,GI50,MOLT-4,> 100 µM (inactive)
same,GI50,HCC 2998,> 100 µM (inactive)
same,GI50,SK-MEL-5,> 100 µM (inactive)
same,GI50,K562,> 100 µM (inactive)
same,GI50,M14,> 100 µM (inactive)
same,GI50,RXF 393,> 100 µM (inactive)
same,GI50,HOP-92,> 100 µM (inactive)
same,GI50,ACHN,> 100 µM (inactive)
same,GI50,NCI/ADR-RES,> 100 µM (inactive)
same,GI50,LOX IMVI,> 100 µM (inactive)
same,GI50,OVCAR-8,> 100 µM (inactive)
same,GI50,SF-539,> 100 µM (inactive)
same,GI50,SNB-19,> 100 µM (inactive)
same,GI50,HT-29,81.7 µM (inactive)
same,GI50,SN12C,> 100 µM (inactive)
same,GI50,CAKI-1,> 100 µM (inactive)
same,GI50,A549,> 100 µM (inactive)
same,GI50,OVCAR-5,> 100 µM (inactive)
same,GI50,SF-295,> 100 µM (inactive)
same,GI50,U-251,> 100 µM (inactive)
same,GI50,786-0,> 100 µM (inactive)
same,GI50,NCI-H23,> 100 µM (inactive)
same,GI50,NCI-H226,> 100 µM (inactive)
same,GI50,A498,> 100 µM (inactive)
same,GI50,NCI-H522,> 100 µM (inactive)
same,GI50,RPMI-8226,> 100 µM (inactive)
same,GI50,T47D,> 100 µM (inactive)
same,GI50,CCRF-CEM,> 100 µM (inactive)
same,GI50,SF-268,> 100 µM (inactive)
same,GI50,SK-MEL-2,> 100 µM (inactive)
same,GI50,SK-MEL-28,> 100 µM (inactive)
same,GI50,UACC-62,> 100 µM (inactive)
same,GI50,UO-31,> 100 µM (inactive)
same,GI50,NCI-H460,> 100 µM (inactive)
same,GI50,OVCAR-3,> 100 µM (inactive)
same,GI50,Hs-578T,22.1 µM (inactive)
same,GI50,TK-10,> 100 µM (inactive)
same,GI50,MDA-MB-435,> 100 µM (inactive)
same,GI50,SR,> 100 µM (inactive)
same,GI50,MDA-N,> 100 µM (inactive)
same,GI50,MCF7,> 100 µM (inactive)
same,GI50,IGROV-1,> 100 µM (inactive)
same,GI50,Malme-3M,> 100 µM (inactive)
same,GI50,HCT-116,> 100 µM (inactive)
same,GI50,PC-3,> 100 µM (inactive)
same,GI50,COLO 205,> 100 µM (inactive)
same,GI50,EKVX,> 100 µM (inactive)
same,GI50,UACC-257,> 100 µM (inactive)
same,GI50,SW-620,> 100 µM (inactive)
same,GI50,SNB-75,34.3 µM (inactive)
same,GI50,DU-145,> 100 µM (inactive)
same,GI50,HCT-15,> 100 µM
same,GI50,MDA-MB-231,> 100 µM (inactive)
same,GI50,BT-549,> 100 µM (inactive)
